A value given as a limit tells only on which side of the number the result lay.

FL-SMARCA4, sequence (P51532 whole entry): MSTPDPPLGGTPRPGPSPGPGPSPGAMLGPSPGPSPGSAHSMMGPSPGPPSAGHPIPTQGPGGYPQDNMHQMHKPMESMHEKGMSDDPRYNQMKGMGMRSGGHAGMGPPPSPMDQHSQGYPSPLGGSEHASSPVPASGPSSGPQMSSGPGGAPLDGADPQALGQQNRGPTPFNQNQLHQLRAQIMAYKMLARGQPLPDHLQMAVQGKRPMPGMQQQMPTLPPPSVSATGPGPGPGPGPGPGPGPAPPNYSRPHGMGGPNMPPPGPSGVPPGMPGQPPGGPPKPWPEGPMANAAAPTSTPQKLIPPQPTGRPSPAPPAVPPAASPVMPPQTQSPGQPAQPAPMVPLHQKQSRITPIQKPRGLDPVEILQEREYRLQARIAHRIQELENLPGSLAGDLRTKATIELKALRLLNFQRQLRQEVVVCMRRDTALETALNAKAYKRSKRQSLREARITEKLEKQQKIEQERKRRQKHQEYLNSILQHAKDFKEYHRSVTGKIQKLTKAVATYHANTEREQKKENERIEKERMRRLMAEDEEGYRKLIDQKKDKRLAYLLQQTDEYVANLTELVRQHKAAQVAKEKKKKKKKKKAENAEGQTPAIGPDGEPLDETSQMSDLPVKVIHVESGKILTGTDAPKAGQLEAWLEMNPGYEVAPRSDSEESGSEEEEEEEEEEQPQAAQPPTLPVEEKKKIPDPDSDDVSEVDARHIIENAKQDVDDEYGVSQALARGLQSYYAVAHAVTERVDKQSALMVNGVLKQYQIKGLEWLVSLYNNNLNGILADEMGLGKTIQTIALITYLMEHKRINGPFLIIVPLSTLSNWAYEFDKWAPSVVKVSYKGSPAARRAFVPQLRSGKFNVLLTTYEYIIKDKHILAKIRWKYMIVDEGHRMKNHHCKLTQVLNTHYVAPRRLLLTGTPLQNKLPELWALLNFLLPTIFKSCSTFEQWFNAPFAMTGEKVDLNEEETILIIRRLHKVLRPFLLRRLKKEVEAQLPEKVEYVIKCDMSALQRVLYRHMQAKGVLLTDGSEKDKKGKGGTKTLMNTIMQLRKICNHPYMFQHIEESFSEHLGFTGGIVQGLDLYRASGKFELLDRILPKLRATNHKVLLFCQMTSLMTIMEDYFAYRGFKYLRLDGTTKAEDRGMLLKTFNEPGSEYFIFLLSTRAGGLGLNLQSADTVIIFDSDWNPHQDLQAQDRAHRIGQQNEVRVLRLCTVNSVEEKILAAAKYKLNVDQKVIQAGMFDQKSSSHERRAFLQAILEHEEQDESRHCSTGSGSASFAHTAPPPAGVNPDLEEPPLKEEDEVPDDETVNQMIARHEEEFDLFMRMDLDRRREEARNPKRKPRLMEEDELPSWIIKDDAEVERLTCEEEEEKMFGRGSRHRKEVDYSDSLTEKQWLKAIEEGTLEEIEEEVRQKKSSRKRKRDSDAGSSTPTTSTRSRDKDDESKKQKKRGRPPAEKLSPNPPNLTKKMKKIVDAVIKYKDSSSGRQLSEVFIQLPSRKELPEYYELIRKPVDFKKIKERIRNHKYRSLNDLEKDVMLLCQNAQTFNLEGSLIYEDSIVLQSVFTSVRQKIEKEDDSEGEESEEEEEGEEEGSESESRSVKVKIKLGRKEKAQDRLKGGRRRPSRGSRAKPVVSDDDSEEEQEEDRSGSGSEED
T1 sequence (P51531 with tags, fused parts or gaps): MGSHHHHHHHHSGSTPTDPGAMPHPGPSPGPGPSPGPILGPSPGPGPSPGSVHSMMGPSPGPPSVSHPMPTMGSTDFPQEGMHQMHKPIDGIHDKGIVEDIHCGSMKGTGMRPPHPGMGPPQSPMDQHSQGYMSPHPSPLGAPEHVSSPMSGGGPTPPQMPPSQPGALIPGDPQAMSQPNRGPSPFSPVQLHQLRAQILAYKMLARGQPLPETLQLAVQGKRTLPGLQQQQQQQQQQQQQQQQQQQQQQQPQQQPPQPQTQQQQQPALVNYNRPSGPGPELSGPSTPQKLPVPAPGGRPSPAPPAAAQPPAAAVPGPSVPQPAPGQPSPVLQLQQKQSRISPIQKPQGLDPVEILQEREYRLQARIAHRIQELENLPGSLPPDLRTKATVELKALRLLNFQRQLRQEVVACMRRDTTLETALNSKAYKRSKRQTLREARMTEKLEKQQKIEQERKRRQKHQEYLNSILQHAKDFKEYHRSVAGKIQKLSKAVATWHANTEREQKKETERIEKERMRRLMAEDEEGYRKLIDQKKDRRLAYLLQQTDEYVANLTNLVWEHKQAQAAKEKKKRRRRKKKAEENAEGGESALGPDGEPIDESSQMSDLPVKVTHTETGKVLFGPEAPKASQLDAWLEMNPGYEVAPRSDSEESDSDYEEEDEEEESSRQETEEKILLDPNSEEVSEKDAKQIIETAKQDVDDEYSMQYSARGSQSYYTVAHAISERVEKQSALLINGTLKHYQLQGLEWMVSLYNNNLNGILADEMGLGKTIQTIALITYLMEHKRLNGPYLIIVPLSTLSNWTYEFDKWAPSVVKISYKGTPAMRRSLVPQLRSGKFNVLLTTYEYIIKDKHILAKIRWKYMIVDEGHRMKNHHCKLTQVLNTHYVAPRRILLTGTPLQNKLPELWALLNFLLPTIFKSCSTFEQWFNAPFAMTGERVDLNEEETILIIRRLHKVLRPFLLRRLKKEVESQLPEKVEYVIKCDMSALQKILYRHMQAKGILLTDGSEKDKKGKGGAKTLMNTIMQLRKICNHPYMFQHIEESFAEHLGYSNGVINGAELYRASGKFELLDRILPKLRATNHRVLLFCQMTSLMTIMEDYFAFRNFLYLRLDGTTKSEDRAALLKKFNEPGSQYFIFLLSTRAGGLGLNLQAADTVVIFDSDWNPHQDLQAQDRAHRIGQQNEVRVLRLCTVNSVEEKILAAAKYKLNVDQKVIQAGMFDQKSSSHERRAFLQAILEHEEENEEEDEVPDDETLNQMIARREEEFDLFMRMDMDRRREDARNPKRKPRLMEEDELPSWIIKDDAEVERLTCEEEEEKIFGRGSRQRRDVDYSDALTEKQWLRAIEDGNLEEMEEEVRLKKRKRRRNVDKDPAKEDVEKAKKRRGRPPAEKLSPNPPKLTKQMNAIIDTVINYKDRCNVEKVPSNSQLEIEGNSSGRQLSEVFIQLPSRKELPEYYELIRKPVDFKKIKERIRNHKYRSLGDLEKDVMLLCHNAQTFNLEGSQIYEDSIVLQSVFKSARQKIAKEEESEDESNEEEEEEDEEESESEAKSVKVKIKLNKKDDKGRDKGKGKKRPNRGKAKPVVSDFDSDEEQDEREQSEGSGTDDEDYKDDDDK

One assay has as its target T1, FL-SMARCA2 (full-length human SMARCA2 isoform 1) (Homo sapiens, UniProt P51531).
T1 construct: FLAG tag (YKDDDDK) (C); made in house; host or cells: Sf21 insect cells (baculovirus, pFastBacI)
Kind of assay: SMARCA2 ATPase activity assay (ADP-Glo, chicken mononucleosome substrate). In kind it is biochemical. Conditions: Table 3.1; ATPase assay, enzyme 5 nM, ATP 250 uM, chicken mononucleosome 10 nM, 30 min preincubation. A general note: In ADP-Glo the light output rises with the ADP produced.
For the compound `COCCn1cc(NC(=O)c2cnn(-c3ccccc3C)c2C)ccc1=O` [Compound 9], the IC50 was greater than 50 µM.
Consider `CCn1cc(NC(=O)c2csc(C(N)=O)n2)ccc1=O` [Compound 184], for which the IC50 was greater than 50 µM.
The compound `CCn1cc(NC(=O)c2cc(Cl)n[nH]2)cc(F)c1=O` [Compound 165] had an IC50 of 0.343 µM.
In turn, `CCn1cc(NC(=O)c2cc(Cl)c(Cl)s2)cc(OCCN(C)C)c1=O` [Compound 121] had an IC50 greater than 50 µM.
`CCn1cc(NC(=O)c2cc(Cl)c(C#N)n2C)cc(Cl)c1=O` [Compound 161] came in with an IC50 of 0.553 µM.
In turn, `C/C=C/c1cc(C(=O)Nc2ccc(=O)n(CC)c2)sc1Cl` [Compound 279] came in with an IC50 of 24 µM.
`Cn1c(C(=O)Nc2cc(Cl)c(=O)n(CCF)c2)cc(Cl)c1Cl` [Compound 134]: the IC50 is 0.148 µM.
As for `N#Cc1cc(C(=O)Nc2cc(Cl)c(=O)n(CCF)c2)sc1Cl` [Compound 215], the IC50 worked out at 0.071 µM.
Still for that read-out and setting: the same measure for `O=C(Nc1cc(F)c(=O)n(CCF)c1)c1cc(Cl)n[nH]1` [Compound 155]: 0.163 µM.
`O=C(Nc1cc(F)c(=O)n(CC(F)F)c1)c1cc(Cl)no1` [Compound 326] came in with an IC50 of 3.78 µM.
Same read-out and setting: as for `CCn1cc(NC(=O)c2ccc(I)n2C)ccc1=O` [Compound 48], the figure is 14.1 µM.
`CCn1cc(NC(=O)c2csc(-c3ccc(C)n3C)n2)ccc1=O` [Compound 6]: the IC50 is greater than 50 µM.
Compound `Cn1c(C(=O)Nc2cc(F)c(=O)n(CC(F)(F)F)c2)cnc1C#N` [Compound 221] returned an IC50 of 1.45 µM.
`N#Cc1sc(C(=O)Nc2ccc(=O)n(CC(F)F)c2)cc1Cl` [Compound 293] showed an IC50 of 0.127 µM.
As to `Cn1c(C(=O)Nc2cc(Cl)c(=O)n(CC(F)(F)F)c2)cc(Cl)c1C#N` [Compound 163], the IC50 turned out to be 0.309 µM.
In turn, `CCn1cc(NC(=O)c2cc(Cl)c(-c3ncco3)s2)ccc1=O` [Compound 283] yielded an IC50 of 33.2 µM.
As to `O=C(Nc1cc(F)c(=O)n(CCF)c1)c1cc(Cl)c(Cl)o1` [Compound 254], the IC50 is 5.81 µM.
In turn, `Cn1nc(C(=O)Nc2cc(F)c(=O)n(CCF)c2)cc1Cl` [Compound 230] had an IC50 greater than 50 µM.
Take `Cn1c(C(=O)Nc2cc(F)c(=O)n(CCF)c2)cc(Cl)c1C#N` [Compound 152]: the IC50 amounted to 0.166 µM.
The compound `CCn1cc(NC(=O)c2cnc(C#N)[nH]2)ccc1=O` [Compound 183] displayed an IC50 greater than 50 µM.
In turn, `CCn1cc(NC(=O)c2cc(C)nn2C)ccc1=O` [Compound 16] came in with an IC50 greater than 50 µM.
For the compound `O=C(Nc1cc(F)c(=O)n(CCF)c1)c1cc(CO)c(Cl)s1` [Compound 308], the IC50 was 23.3 µM.
Same read-out and setting: as for `CCn1cc(NC(=O)c2cc(Cl)c(Cl)s2)cc(Cc2cnn(C)c2)c1=O` [Compound 186], the figure is 15.6 µM.

The assay is the same for the next values; noted with them: Table 3d.1; ATPase assay, enzyme 5 nM, ATP 250 uM, chicken mononucleosome 10 nM, 30 min preincubation; read-out: FL-SMARCA2 IC>50.
Regarding `N#Cc1nc(C(=O)Nc2cc(F)c(=O)n(CC(F)F)c2)co1` [Compound 43d], the IC50 is greater than 50 µM.
With `CCn1c(Cl)c(NC(=O)c2cc(Cl)c(Cl)s2)ccc1=O` [Compound 27d], the IC50 is greater than 50 µM.
Still for that read-out and setting: as for `CCCn1nc(NC(=O)c2cc(Cl)c(Cl)s2)ccc1=O` [Compound 22d], the figure is 6.38 µM; as for `COc1cccc(-c2nc(C(=O)Nc3cn(C)c(=O)cc3C)cs2)c1OC` [Compound 5d], greater than 50 µM; as for `O=C(Nc1cc(F)c(=O)n(CC(F)F)c1)c1cc(Cl)c(C#CCO)s1` [Compound 52d], 34 µM.
As to `CCn1cc(NC(=O)c2cc(Cl)c(Cl)s2)c(F)cc1=O` [Compound 31d], the IC50 was found to be 48.1 µM.

Another assay has as its target FL-SMARCA4 (Homo sapiens, UniProt P51532). The experiment in a line: SMARCA4 ATPase activity assay (ADP-Glo, chicken mononucleosome substrate). To be noted: FL-SMARCA4 IC50.
`N#Cc1nc(C(=O)Nc2cc(F)c(=O)n(CC(F)F)c2)co1` [Compound 43d]: the IC50 is greater than 50 µM.
For `CCn1c(Cl)c(NC(=O)c2cc(Cl)c(Cl)s2)ccc1=O` [Compound 27d], the IC50 is greater than 50 µM.
With `CCCn1nc(NC(=O)c2cc(Cl)c(Cl)s2)ccc1=O` [Compound 22d], the IC50 is 28.9 µM.
Still for that read-out and setting: the same measure for `COc1cccc(-c2nc(C(=O)Nc3cn(C)c(=O)cc3C)cs2)c1OC` [Compound 5d]: greater than 50 µM.
Turning to `O=C(Nc1cc(F)c(=O)n(CC(F)F)c1)c1cc(Cl)c(C#CCO)s1` [Compound 52d], the IC50 is greater than 50 µM.
The compound `CCn1cc(NC(=O)c2cc(Cl)c(Cl)s2)c(F)cc1=O` [Compound 31d] returned an IC50 greater than 50 µM.

Still in this assay, the particulars now being: FL-SMARCA4 IC50, Table 3.2; ATPase assay, enzyme 5 nM, ATP 250 uM, chicken mononucleosome 10 nM, 30 min preincubation.
In turn, `COCCn1cc(NC(=O)c2cnn(-c3ccccc3C)c2C)ccc1=O` [Compound 9] registered an IC50 greater than 50 µM.
Consider `CCn1cc(NC(=O)c2csc(C(N)=O)n2)ccc1=O` [Compound 184], for which the IC50 is greater than 50 µM.
`CCn1cc(NC(=O)c2cc(Cl)n[nH]2)cc(F)c1=O` [Compound 165] showed an IC50 of 1.07 µM.
As to `CCn1cc(NC(=O)c2cc(Cl)c(Cl)s2)cc(OCCN(C)C)c1=O` [Compound 121], the IC50 is greater than 50 µM.
For the compound `CCn1cc(NC(=O)c2cc(Cl)c(C#N)n2C)cc(Cl)c1=O` [Compound 161], the IC50 is 4.03 µM.
Turning to `C/C=C/c1cc(C(=O)Nc2ccc(=O)n(CC)c2)sc1Cl` [Compound 279], the IC50 is greater than 50 µM.
In turn, `Cn1c(C(=O)Nc2cc(Cl)c(=O)n(CCF)c2)cc(Cl)c1Cl` [Compound 134] showed an IC50 of 0.631 µM.
In turn, `N#Cc1cc(C(=O)Nc2cc(Cl)c(=O)n(CCF)c2)sc1Cl` [Compound 215] gave an IC50 of 0.492 µM.
`O=C(Nc1cc(F)c(=O)n(CCF)c1)c1cc(Cl)n[nH]1` [Compound 155] displayed an IC50 of 0.529 µM.
Same read-out and setting: as for `O=C(Nc1cc(F)c(=O)n(CC(F)F)c1)c1cc(Cl)no1` [Compound 326], the figure is 17.2 µM.
Turning to `CCn1cc(NC(=O)c2ccc(I)n2C)ccc1=O` [Compound 48], the IC50 was greater than 50 µM.
Compound `CCn1cc(NC(=O)c2csc(-c3ccc(C)n3C)n2)ccc1=O` [Compound 6] had an IC50 greater than 50 µM.
The compound `Cn1c(C(=O)Nc2cc(F)c(=O)n(CC(F)(F)F)c2)cnc1C#N` [Compound 221] returned an IC50 of 6.28 µM.
The compound `N#Cc1sc(C(=O)Nc2ccc(=O)n(CC(F)F)c2)cc1Cl` [Compound 293] showed an IC50 of 0.3 µM.
Regarding `Cn1c(C(=O)Nc2cc(Cl)c(=O)n(CC(F)(F)F)c2)cc(Cl)c1C#N` [Compound 163], the IC50 was determined as 1.17 µM.
As for `CCn1cc(NC(=O)c2cc(Cl)c(-c3ncco3)s2)ccc1=O` [Compound 283], the IC50 was greater than 50 µM.
Regarding `O=C(Nc1cc(F)c(=O)n(CCF)c1)c1cc(Cl)c(Cl)o1` [Compound 254], the IC50 was found to be 47.1 µM.
`Cn1nc(C(=O)Nc2cc(F)c(=O)n(CCF)c2)cc1Cl` [Compound 230] had an IC50 greater than 50 µM.
Still for that read-out and setting: the same measure for `Cn1c(C(=O)Nc2cc(F)c(=O)n(CCF)c2)cc(Cl)c1C#N` [Compound 152]: 0.616 µM; for `CCn1cc(NC(=O)c2cnc(C#N)[nH]2)ccc1=O` [Compound 183]: greater than 50 µM; for `CCn1cc(NC(=O)c2cc(C)nn2C)ccc1=O` [Compound 16]: greater than 50 µM.
The compound `O=C(Nc1cc(F)c(=O)n(CCF)c1)c1cc(CO)c(Cl)s1` [Compound 308] showed an IC50 greater than 50 µM.
The compound `CCn1cc(NC(=O)c2cc(Cl)c(Cl)s2)cc(Cc2cnn(C)c2)c1=O` [Compound 186] returned an IC50 greater than 50 µM.

For the origin of these results see patent US20220356174A1, “PYRIDIN-2-ONE COMPOUNDS USEFUL AS SMARCA2 ANTAGONISTS” (Epizyme, Inc., priority 2018, published 2022).
